This note sets out measurements from publication PMC12113998, “Exploring Multivalent Architectures for Binding and Stabilization of N-Acetylgalactosamine 6-Sulfatase” (Molecules, 2025).

For one test, the target named is T1, rhGALNS VIMIZIM® (Homo sapiens, UniProt P34059).
T1 construct: purchased BioMarin (VIMIZIM, elosulfase alfa)
T1 sequence (P34059 27-522): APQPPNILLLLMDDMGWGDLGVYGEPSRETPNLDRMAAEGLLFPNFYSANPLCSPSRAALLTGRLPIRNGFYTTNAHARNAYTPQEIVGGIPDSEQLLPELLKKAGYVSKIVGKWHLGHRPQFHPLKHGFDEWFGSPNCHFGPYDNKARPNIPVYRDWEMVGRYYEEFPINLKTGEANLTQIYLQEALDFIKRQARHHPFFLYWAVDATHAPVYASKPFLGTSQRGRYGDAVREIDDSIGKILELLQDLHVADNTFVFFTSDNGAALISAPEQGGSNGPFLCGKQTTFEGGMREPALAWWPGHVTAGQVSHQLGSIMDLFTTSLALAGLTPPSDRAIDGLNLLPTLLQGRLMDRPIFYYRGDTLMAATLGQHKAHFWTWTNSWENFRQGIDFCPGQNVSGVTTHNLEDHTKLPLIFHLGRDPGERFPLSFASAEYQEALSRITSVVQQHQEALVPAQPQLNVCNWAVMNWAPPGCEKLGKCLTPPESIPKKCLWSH
Kind of test: Stabilization of rhGALNS under thermal denaturation (48 °C, 40 and 60 min). It is filed as biochemical. The procedure: (§1) The promising IC50 values observed for 1 and 36 prompted us to assess their effects on the commercially available wild-type recombinant GALNS (rhGALNS VIMIZIM®). […] Building on these findings, we investigated the potential stabilizing effect of these compounds on the tertiary structure of GALNS through a thermal denaturation study. rhGALNS was preincubated with varying concentrations of the compounds before being subjected to heating at 48 °C for 40 and 60 min. The relative enzyme activity was expressed as the ratio between the activity measured after thermal denaturation at 48 °C and that obtained under physiological conditions at 37 °C.
Figure 3 Stabilization of rhGALNS VIMIZIM® in the presence of 1 (A) and 36 (B) was evaluated in vitro by using heat inactivation. Relative enzymatic activity after thermal treatment (48 °C) for 40 and 60 min at the indicated inhibitor concentrations (μM) with respect to the corresponding assay at 37 °C (no denaturation). Data for control were obtained as above except that no inhibitor was present. Experiments were performed in triplicate (see Supporting Information). […]
The thermal stability induced by 1 and 36 against rhGALNS VIMIZIM® was determined by measuring the hydrolysis rate with 4-methylumbelliferyl-β-galactoside-6-sulfate.Na (6.66 mM) after denaturation of enzyme at 48 °C for 40 minutes or 60 minutes with or without (Ctrl) different concentrations of compounds. […]
After incubation 20 µL of 4-methylumbelliferyl-β-galactoside-6-sulfate.Na substrate solution in Na-Acetate/acetic acid buffer (0.1 M/0.1 M, pH 4.3) containing 0.1 M NaCl, 0.02% (w/v) NaN3 and 5 mM Pb-acetate was added. […] Fluorescence was measured in a SpectraMax M2 microplate reader (Molecular-Devices) using a 365 nm excitation wavelength and a 435 nm emission wavelength. […]
Figure S57. Activity of rhGALNS VIMIZIM® was determined after incubation for 0 minutes or 40 minutes or 60 minutes at 48 °C with or without (Ctrl) different concentrations of 1 by measuring the hydrolysis rate 4-methylumbelliferyl-β-galactoside-6-sulfate.Na. […]

The target in test [1] is T2, recombinant human GALNS (rhGALNS VIMIZIM®) (Homo sapiens, UniProt P34059).
T2 construct: purchased BioMarin (VIMIZIM, elosulfase alfa)
T2 sequence (P34059 27-522): T1 sequence (P34059 27-522)
Kind of test: IC50 on recombinant human GALNS (rhGALNS VIMIZIM). It is filed as biochemical. The procedure:
as §1
The IC 50 values of inhibitors against human GALNS in leukocytes isolated from healthy donors or against recombinant human GALNS (rhGALNS VIMIZIM®) were determined by measuring the initial hydrolysis rate with 4 -methylumbelliferyl-β-galactoside-6-sulfate.Na (6.66 mM) at different concentrations of inhibitors.
Data obtained were fitted to the following equation using the OriginPro 2021 (Version 2021. OriginLab Corporation, Northampton, MA, USA): where Vi/Vo, represent the ratio between the activity measured in the presence of the inhibitor (Vi) and the activity of the control without the inhibitor (Vo), “x” the inhibitor concentration, Max and Min, the maximal and minimal enzymatic activity observed, respectively. […]

For `O=C(NC(COCc1cn(CCCCCCN2CC(O)C(O)C2CO)nn1)(COCc1cn(CCCCCCN2CC(O)C(O)C2CO)nn1)COCc1cn(CCCCCCN2CC(O)C(O)C2CO)nn1)c1cc(C(=O)NC(COCc2cn(CCCCCCN3CC(O)C(O)C3CO)nn2)(COCc2cn(CCCCCCN3CC(O)C(O)C3CO)nn2)COCc2cn(CCCCCCN3CC(O)C(O)C3CO)nn2)cc(C(=O)NC(COCc2cn(CCCCCCN3CC(O)C(O)C3CO)nn2)(COCc2cn(CCCCCCN3CC(O)C(O)C3CO)nn2)COCc2cn(CCCCCCN3CC(O)C(O)C3CO)nn2)c1` (centres unmarked) [Compound 1], on rhGALNS VIMIZIM® (500 µM compound, both time points (40 and 60 min)), the “enzyme activity with respect to the control after thermal denaturation” value was “around two-fold”. Also, the IC50 in test [1] was 110 µM.
With `OCC1C(O)C(O)CN1CCCCCCn1cc(COCC(COCc2cn(CCCCCCN3CC(O)C(O)C3CO)nn2)(COCc2cn(CCCCCCN3CC(O)C(O)C3CO)nn2)NCc2cc(CNC(COCc3cn(CCCCCCN4CC(O)C(O)C4CO)nn3)(COCc3cn(CCCCCCN4CC(O)C(O)C4CO)nn3)COCc3cn(CCCCCCN4CC(O)C(O)C4CO)nn3)cc(CNC(COCc3cn(CCCCCCN4CC(O)C(O)C4CO)nn3)(COCc3cn(CCCCCCN4CC(O)C(O)C4CO)nn3)COCc3cn(CCCCCCN4CC(O)C(O)C4CO)nn3)c2)nn1` (centres unmarked) [Compound 36], the “enzyme activity with respect to the control after thermal denaturation” value at rhGALNS VIMIZIM® (30 µM compound, 40 min) was 1.3 fold; at rhGALNS VIMIZIM® (30 µM compound, 60 min), 2.4 fold. The IC50 in test [1] is 30 µM.
